Test results: US11661431B2, “Thienopyrrole compounds” (Gilead Sciences, Inc., priority 2021, dated 2023)

Legend:
TLR7 = TLR7 (Homo sapiens (Human), UniProt Q9NYK1); test: TLR7 human peripheral blood mononuclear cell (PBMC) cell-based assay (GS-986 as agonist; IL-6 and IFNα readout); details: human PBMCs, TLR7 agonist GS-986 at 400 nM, 6 hours, antagonist potency; read-out: TLR-7 EC50
How it was run: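 Human PBMCs (100,000 cells/well) preincubated 1 h at 37 °C with antagonist in 10-point dose response, then stimulated with TLR7 agonist for a further 6 h at 37 °C, 5% CO2. Supernatant IL-6 and IFNα measured by electrochemiluminescence immunoassay.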

TLR8 = TLR8 (Homo sapiens (Human), UniProt Q9NR97); test: TLR8 human peripheral blood mononuclear cell (PBMC) cell-based assay (Compound A as agonist; TNFα and IL12p40 readout); details: human PBMCs, TLR8 agonist Compound A at 800 nM, 6 hours, antagonist potency; read-out: TLR-8 EC50
Sequence of TLR8 (Q9NR97 27-1041): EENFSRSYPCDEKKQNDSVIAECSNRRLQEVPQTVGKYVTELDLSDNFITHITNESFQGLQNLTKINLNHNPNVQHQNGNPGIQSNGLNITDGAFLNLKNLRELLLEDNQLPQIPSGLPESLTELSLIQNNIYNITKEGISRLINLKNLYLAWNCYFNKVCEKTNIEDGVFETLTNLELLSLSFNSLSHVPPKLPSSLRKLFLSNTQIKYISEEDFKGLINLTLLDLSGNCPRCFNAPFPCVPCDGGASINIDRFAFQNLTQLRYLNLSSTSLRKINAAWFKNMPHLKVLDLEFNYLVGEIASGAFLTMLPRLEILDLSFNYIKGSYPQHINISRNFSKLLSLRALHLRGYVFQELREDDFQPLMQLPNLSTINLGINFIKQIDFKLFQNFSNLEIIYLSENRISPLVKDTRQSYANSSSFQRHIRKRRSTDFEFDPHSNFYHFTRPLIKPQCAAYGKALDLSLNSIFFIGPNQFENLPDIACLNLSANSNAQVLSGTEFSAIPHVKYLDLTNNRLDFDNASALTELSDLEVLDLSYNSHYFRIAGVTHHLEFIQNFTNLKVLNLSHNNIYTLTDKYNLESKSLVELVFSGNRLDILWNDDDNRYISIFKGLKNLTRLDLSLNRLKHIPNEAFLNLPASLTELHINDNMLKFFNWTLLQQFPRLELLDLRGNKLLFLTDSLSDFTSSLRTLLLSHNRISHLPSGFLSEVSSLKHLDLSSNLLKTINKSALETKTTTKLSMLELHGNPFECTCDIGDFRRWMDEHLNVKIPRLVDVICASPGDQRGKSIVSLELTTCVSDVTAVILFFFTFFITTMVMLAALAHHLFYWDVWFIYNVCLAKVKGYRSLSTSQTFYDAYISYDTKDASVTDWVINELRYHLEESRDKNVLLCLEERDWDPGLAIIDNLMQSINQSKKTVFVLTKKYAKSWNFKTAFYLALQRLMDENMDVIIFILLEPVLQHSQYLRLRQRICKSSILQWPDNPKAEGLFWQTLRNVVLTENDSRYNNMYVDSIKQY

Sequence of TLR7 (Q9NYK1 27-1049): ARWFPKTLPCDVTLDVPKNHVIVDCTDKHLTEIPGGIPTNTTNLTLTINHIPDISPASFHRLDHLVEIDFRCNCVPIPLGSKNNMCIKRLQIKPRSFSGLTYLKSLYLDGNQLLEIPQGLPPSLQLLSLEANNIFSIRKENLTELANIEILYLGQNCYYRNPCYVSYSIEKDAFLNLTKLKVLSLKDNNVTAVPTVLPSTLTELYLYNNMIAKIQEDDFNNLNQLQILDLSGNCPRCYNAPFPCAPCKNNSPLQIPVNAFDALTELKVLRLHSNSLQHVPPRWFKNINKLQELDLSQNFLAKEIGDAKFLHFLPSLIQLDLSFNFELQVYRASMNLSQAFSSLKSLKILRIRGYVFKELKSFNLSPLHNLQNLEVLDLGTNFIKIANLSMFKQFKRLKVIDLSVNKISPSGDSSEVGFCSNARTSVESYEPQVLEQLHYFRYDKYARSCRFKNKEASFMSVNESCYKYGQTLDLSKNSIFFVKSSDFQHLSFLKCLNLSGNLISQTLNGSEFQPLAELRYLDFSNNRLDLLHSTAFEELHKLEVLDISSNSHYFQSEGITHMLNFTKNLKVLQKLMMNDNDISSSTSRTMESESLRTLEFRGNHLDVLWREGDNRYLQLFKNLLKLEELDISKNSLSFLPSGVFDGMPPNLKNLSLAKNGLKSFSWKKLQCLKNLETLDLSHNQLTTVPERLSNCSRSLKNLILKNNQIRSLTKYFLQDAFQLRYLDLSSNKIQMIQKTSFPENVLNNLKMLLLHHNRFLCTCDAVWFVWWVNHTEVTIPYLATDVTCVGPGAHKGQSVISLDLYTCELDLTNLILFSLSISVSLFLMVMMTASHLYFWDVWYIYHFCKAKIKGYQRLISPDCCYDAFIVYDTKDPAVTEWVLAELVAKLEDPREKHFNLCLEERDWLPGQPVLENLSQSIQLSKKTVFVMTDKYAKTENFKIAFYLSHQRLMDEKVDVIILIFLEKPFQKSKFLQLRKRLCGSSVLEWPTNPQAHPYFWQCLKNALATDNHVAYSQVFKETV

## Cc1c(C2CC3COCC(C2)N3)sc2[nH]c(-c3cc(C)c4ncnn4c3)c(C(C)C)c12 (centres unmarked) [Example 59]
TLR7
  EC50: 2.97 nM
TLR8
  EC50: 28.4 nM

## Cc1c(-c2[nH]c3sc(C4CC5(CNC5)C4)c(C)c3c2C(C)C)cn2ncnc2c1C [Example 60]
TLR7
  EC50: 1.81 nM
TLR8
  EC50: 0.93 nM

## Cc1c(C2CCC3(CNC3)C2)sc2[nH]c(-c3cc(C)c4ncnn4c3)c(C(C)C)c12 (centres unmarked) [Example 61]
TLR7
  EC50: 0.19 nM
TLR8
  EC50: 9.09 nM

## Cc1c(C2CC3CCC(C2)N3CC(N)=O)sc2[nH]c(-c3cc(C)c4ncnn4c3)c(C(C)C)c12 (centres unmarked) [Example 62, 2-(3-(4-isopropyl-3-methyl-5-(8-methyl-[1,2,4]triazolo[1,5-a]pyridin-6-yl)-6H-thieno[2,3-b]pyrrol-2-yl)-8-azabicyclo[3.2.1]octan-8-yl)acetamide]
TLR7
  EC50: 0.19 nM
TLR8
  EC50: 7.17 nM

## Cc1c(C2C3CCC2CN(CC(N)=O)C3)sc2[nH]c(-c3cc(C)c4ncnn4c3)c(C(C)C)c12 (centres unmarked) [Example 63]
TLR7
  EC50: 0.26 nM
TLR8
  EC50: 27.3 nM

## Cc1c(C2CN(CC(N)=O)C2)sc2[nH]c(-c3cc(C)c4ncnn4c3)c(C(C)C)c12 [Example 64]
TLR7
  EC50: 3.12 nM
TLR8
  EC50: 9.48 nM

## Cc1c(C2C3CC2CN(CC(N)=O)C3)sc2[nH]c(-c3cc(C)c4ncnn4c3)c(C(C)C)c12 (centres unmarked) [Example 65]
TLR7
  EC50: 28.1 nM
TLR8
  EC50: 33.1 nM

## Cc1c(C2C[C@@H]3C[C@H]2CN3CC(N)=O)sc2[nH]c(-c3cc(C)c4ncnn4c3)c(C(C)C)c12 (some centres unmarked) [Example 66]
TLR7
  EC50: 0.12 nM
TLR8
  EC50: 0.16 nM

## Cc1c([C@H]2C[C@@H]3CN(CC(N)=O)C[C@@H]3C2)sc2[nH]c(-c3cc(C)c4ncnn4c3)c(C(C)C)c12 [Example 70, 2-((3aR,6aS)-5-(4-isopropyl-3-methyl-5-(8-methyl-[1,2,4]triazolo[1,5-a]pyridin-6-yl)-6H-thieno[2,3-b]pyrrol-2-yl)hexahydrocyclopenta[c]pyrrol-2(1H)-yl)acetamide]
TLR7
  EC50: 0.05 nM
TLR8
  EC50: 5.95 nM

## Cc1c([C@@H]2C[C@@H]3CN(CC(N)=O)C[C@@H]3C2)sc2[nH]c(-c3cc(C)c4ncnn4c3)c(C(C)C)c12 [Example 71, 2-((3aR,6aS)-5-(4-isopropyl-3-methyl-5-(8-methyl-[1,2,4]triazolo[1,5-a]pyridin-6-yl)-6H-thieno[2,3-b]pyrrol-2-yl)hexahydrocyclopenta[c]pyrrol-2(1H)-yl)acetamide]
TLR7
  EC50: 0.45 nM
TLR8
  EC50: 7.75 nM

## Cc1c(-c2[nH]c3sc([C@@H]4C[C@@H]5C[C@H]4CN5)c(C)c3c2C(C)C)cn2ncnc2c1C [Example 72, 2-((1S,4R,5R)-2-azabicyclo[2.2.1]heptan-5-yl)-5-(7,8-dimethyl-[1,2,4]triazolo[1,5-a]pyridin-6-yl)-4-isopropyl-3-methyl-6H-thieno[2,3-b]pyrrole]
TLR7
  EC50: 0.1 nM
TLR8
  EC50: 0.11 nM

## Cc1c(-c2[nH]c3sc(C4CCNCC4)c(C)c3c2C(C)C)cn2ncnc2c1C [Example 73]
TLR7
  EC50: 0.1 nM
TLR8
  EC50: 4.16 nM

## Cc1c(-c2[nH]c3sc([C@H]4C[C@H]5C[C@@H]4CN5)c(C)c3c2C(C)C)cn2ncnc2c1C [Example 74]
TLR7
  EC50: 0.05 nM
TLR8
  EC50: 0.94 nM

## Cc1c(-c2[nH]c3sc(C4CC5(CNCCO5)C4)c(C)c3c2C(C)C)cn2ncnc2c1C (centres unmarked) [Example 76, 2-(5-(7,8-dimethyl-[1,2,4]triazolo[1,5-a]pyridin-6-yl)-4-isopropyl-3-methyl-6H-thieno[2,3-b]pyrrol-2-yl)-5-oxa-8-azaspiro[3.5]nonane]
TLR7
  EC50: 0.05 nM
TLR8
  EC50: 0.24 nM

## Cc1c(-c2[nH]c3sc(C45CCNCC4C5)c(C)c3c2C(C)C)cn2ncnc2c1C (centres unmarked) [Example 77, 2-(3-azabicyclo[4.1.0]heptan-6-yl)-5-(7,8-dimethyl-[1,2,4]triazolo[1,5-a]pyridin-6-yl)-4-isopropyl-3-methyl-6H-thieno[2,3-b]pyrrole]
TLR7
  EC50: 0.09 nM
TLR8
  EC50: 2.89 nM

## Cc1c(-c2[nH]c3sc(C4COC5(CCNCC5)C4)c(C)c3c2C(C)C)cn2ncnc2c1C (centres unmarked) [Example 78, 3-(5-(7,8-dimethyl-[1,2,4]triazolo[1,5-a]pyridin-6-yl)-4-isopropyl-3-methyl-6H-thieno[2,3-b]pyrrol-2-yl)-1-oxa-8-azaspiro[4.5]decane]
TLR7
  EC50: 0.42 nM
TLR8
  EC50: 5.44 nM

## Cc1c(-c2[nH]c3sc(C4COC5(CCN(CC(N)=O)CC5)C4)c(C)c3c2C(C)C)cn2ncnc2c1C (centres unmarked) [Example 80]
TLR7
  EC50: 2.15 nM
TLR8
  EC50: 15.2 nM

## Cc1c(-c2[nH]c3sc([C@@H]4C[C@@H]5C[C@H]4CN5C(C)C(N)=O)c(C)c3c2C(C)C)cn2ncnc2c1C (some centres unmarked) [Example 81]
TLR7
  EC50: 0.19 nM
TLR8
  EC50: 0.45 nM

## Cc1c(-c2[nH]c3sc([C@@H]4C[C@@H]5C[C@H]4CN5CCS(C)(=O)=O)c(C)c3c2C(C)C)cn2ncnc2c1C [Example 83]
TLR7
  EC50: 0.45 nM
TLR8
  EC50: 0.61 nM

## Cc1c(-c2[nH]c3sc(C4CCN(C(=O)[C@@H]5COCCN5)CC4)c(C)c3c2C(C)C)cn2ncnc2c1C [Example 92]
TLR7
  EC50: 1.94 nM
TLR8
  EC50: 2.67 nM

## Cc1c(-c2[nH]c3sc(C45CCN(CC(N)=O)CC4C5)c(C)c3c2C(C)C)cn2ncnc2c1C (centres unmarked) [Example 93]
TLR7
  EC50: 1.36 nM
TLR8
  EC50: 18.4 nM

## Cc1c(-c2[nH]c3sc(C4CCN(C(=O)[C@H]5C[C@@]6(CNCCO6)C5)CC4)c(C)c3c2C(C)C)cn2ncnc2c1C [Example 94, [4-[5-(7,8-dimethyl-[1,2,4]triazolo[1,5-a]pyridin-6-yl)-4-isopropyl-3-methyl-6H-thieno[2,3-b]pyrrol-2-yl]-1-piperidyl]-(5-oxa-8-azaspiro[3.5]nonan-2-yl)methanone]
TLR7
  EC50: 0.05 nM
TLR8
  EC50: 2.3 nM

## Cc1c(-c2[nH]c3sc(C4CCN(C(=O)[C@@H]5CCCN5)CC4)c(C)c3c2C(C)C)cn2ncnc2c1C [Example 99]
TLR7
  EC50: 0.43 nM
TLR8
  EC50: 5.96 nM

## Cc1c(-c2[nH]c3sc(C4CCN(C(=O)[C@H]5CN6CCCC6CO5)CC4)c(C)c3c2C(C)C)cn2ncnc2c1C (some centres unmarked) [Example 104]
TLR7
  EC50: 0.1 nM
TLR8
  EC50: 2.49 nM

## Cc1c(-c2[nH]c3sc(C4CCN(C(=O)C5CN6CC7CC6(CO5)C7)CC4)c(C)c3c2C(C)C)cn2ncnc2c1C (centres unmarked) [Example 105]
TLR7
  EC50: < 0.05 nM
TLR8
  EC50: 4.17 nM

## Cc1c(-c2[nH]c3sc(C4CCN(C(=O)C5(N)COC5)CC4)c(C)c3c2C(C)C)cn2ncnc2c1C [Example 106]
TLR7
  EC50: 0.34 nM
TLR8
  EC50: 49.3 nM

## Cc1c(-c2[nH]c3sc(C4CCN(C(=O)C56COC(CN5)C6)CC4)c(C)c3c2C(C)C)cn2ncnc2c1C (centres unmarked) [Example 107]
TLR7
  EC50: < 0.05 nM
TLR8
  EC50: 6.79 nM

## Cc1c(-c2[nH]c3sc(C4CCN(C(=O)C56CCC(CN5)OC6)CC4)c(C)c3c2C(C)C)cn2ncnc2c1C (centres unmarked) [Example 108]
TLR7
  EC50: 0.2 nM
TLR8
  EC50: 4.77 nM

## Cc1c(-c2[nH]c3sc(C4CCN(C(=O)[C@@H]5CNCCO5)CC4)c(C)c3c2C(C)C)cn2ncnc2c1C [Example 109]
TLR7
  EC50: < 0.05 nM
TLR8
  EC50: 3.45 nM

## Cc1c(-c2[nH]c3sc(C4CCN(C(=O)[C@H]5CNCCO5)CC4)c(C)c3c2C(C)C)cn2ncnc2c1C [Example 110]
TLR7
  EC50: 0.09 nM
TLR8
  EC50: 6.21 nM

## Cc1c(-c2[nH]c3sc(-c4ccc(C5CCNCC5)cc4)c(C)c3c2C(C)C)cn2ncnc2c1C [Example 111]
TLR7
  EC50: 0.45 nM
TLR8
  EC50: 6.58 nM

## Cc1c(-c2[nH]c3sc(C4C[C@@H]5CN[C@H]4C5)c(C)c3c2C(C)C)cn2ncnc2c1C (some centres unmarked) [Example 112]
TLR7
  EC50: 0.07 nM
TLR8
  EC50: 0.5 nM

## Cc1c(-c2[nH]c3sc(-c4ccc(C5CCN(CC(N)=O)CC5)cc4)c(C)c3c2C(C)C)cn2ncnc2c1C [Example 113]
TLR7
  EC50: 0.54 nM
TLR8
  EC50: 9.8 nM

## Cc1c(-c2[nH]c3sc(C4C[C@H]5C[C@@H]4N(CC(N)=O)C5)c(C)c3c2C(C)C)cn2ncnc2c1C (some centres unmarked) [Example 114]
TLR7
  EC50: 0.44 nM
TLR8
  EC50: 2.71 nM

## Cc1c(-c2[nH]c3sc(-c4ccc(C5CNCCO5)cc4)c(C)c3c2C(C)C)cn2ncnc2c1C (centres unmarked) [Example 115]
TLR7
  EC50: 0.24 nM
TLR8
  EC50: 9.38 nM

## Cc1c(C2CCN(C(=O)C3(N4CCOCC4)CC3)CC2)sc2[nH]c(-c3cc(C)c4ncnn4c3)c(C(C)C)c12 [Example 116]
TLR7
  EC50: 0.39 nM
TLR8
  EC50: 27.4 nM

## Cc1c(C2CCN(C(=O)[C@@H]3C[C@@H](F)CN3)CC2)sc2[nH]c(-c3cc(C)c4ncnn4c3)c(C(C)C)c12 [Example 117]
TLR7
  EC50: 0.52 nM
TLR8
  EC50: 16.6 nM

## Cc1c(C2CCN(C(=O)[C@@H]3C[C@H](F)CN3)CC2)sc2[nH]c(-c3cc(C)c4ncnn4c3)c(C(C)C)c12 [Example 118]
TLR7
  EC50: 0.24 nM
TLR8
  EC50: 15.2 nM

## Cc1nnc(CN2C[C@@H]3C[C@H]2C[C@H]3c2sc3[nH]c(-c4cn5ncnc5c(C)c4C)c(C(C)C)c3c2C)o1 [Example 119]
TLR7
  EC50: 0.34 nM
TLR8
  EC50: 4.55 nM

## Cc1noc(C)c1CN1C[C@@H]2C[C@H]1C[C@H]2c1sc2[nH]c(-c3cn4ncnc4c(C)c3C)c(C(C)C)c2c1C [Example 120]
TLR7
  EC50: 0.09 nM
TLR8
  EC50: 1.1 nM

## Cc1nc2c(C)cc(-c3[nH]c4sc([C@@H]5C[C@@H]6C[C@H]5CN6CC(N)=O)c(C)c4c3C(C)C)cn2n1 [Example 121]
TLR7
  EC50: < 0.05 nM
TLR8
  EC50: 0.13 nM

## Cc1c(C2CCC3(C2)CN(CC(N)=O)C3)sc2[nH]c(-c3cc(C)c4ncnn4c3)c(C(C)C)c12 (centres unmarked) [Example 122]
TLR7
  EC50: 0.38 nM
TLR8
  EC50: 1.63 nM

## Cc1c(C2CC3(CCNCC3)C2)sc2[nH]c(-c3cc(C)c4ncnn4c3)c(C(C)C)c12 [Example 123]
TLR7
  EC50: 0.16 nM
TLR8
  EC50: 2.15 nM

## Cc1c(C2CC3(CCN(CC(N)=O)CC3)C2)sc2[nH]c(-c3cc(C)c4ncnn4c3)c(C(C)C)c12 [Example 124]
TLR7
  EC50: 0.3 nM
TLR8
  EC50: 3.22 nM

## Cc1cc(-c2[nH]c3sc([C@H]4C[C@@]5(CCNC5)C4)c(C)c3c2C(C)C)cn2ncnc12 [Example 125]
TLR7
  EC50: 0.33 nM
TLR8
  EC50: 1.5 nM

## Cc1cc(-c2[nH]c3sc([C@H]4C[C@@]5(CCN(CC(N)=O)C5)C4)c(C)c3c2C(C)C)cn2ncnc12 [Example 126]
TLR7
  EC50: 0.24 nM
TLR8
  EC50: 1.74 nM
